Measurements from patent US20070191324A1, “Methods for treatment or prophylaxis of aldosterone-mediated pathogenic effects in a subject using an epoxy-steroidal aldosterone antagonist” (priority 1999, published 2007).
Like-named read-outs stand apart in the source and are kept apart here.

Assays:
[1] = system: saline-loaded adrenalectomized rats treated with aldosterone; assay: Subcutaneous vs. oral eplerenone in saline-loaded adrenalectomized rats treated with aldosterone (Example A-3); type: in vivo
Experimental: Urinary sodium, potassium and water excretion were measured. The results are expressed as the ratio of excreted urinary sodium to potassium (Na/K)±SEM.

[2] = Single dose pharmacokinetics, Japan and Ex-Japan trials (Example A-11); type: in vivo, human; details: for Vd/F: male, human, in vivo, oral, single dose, least squares mean, read-out: Vss/F
Experimental: A total of 76 European subjects and 38 Japanese subjects participated in the single and multiple dose tolerability and food effect trials. Three of the studies were Ex-Japan studies and included doses ranging from 10 mg to 1000 mg. The other two studies were conducted in Japan and included doses ranging from 50 mg to 600 mg.
The […] trials included (i) a single dose tolerability trial, and (ii) a multiple dose tolerability trial, and (iii) a food effect study.
Both single dose and multiple dose tolerability trials were conducted in Japan utilizing healthy male Japanese subjects. […] Six subjects who received the 100 mg dose also participated in the food effect treatment arm of the single dose tolerability trial.
Combining single dose fasting pharmacokinetic data from all five studies, an analysis of variance with factors for country (Japan, Ex-Japan), study nested within country, and dose were performed on the dose-normalized Cmax and AUC values to assess the effect of country (population). Dose normalization was done to the lowest dose (10 mg for single dose, 100 mg for multiple dose). In the absence of intravenous data, the distribution volume (V/F) and clearance (CL/F) parameters are represented as the apparent values and are normalized to 70 kg of body weight. There were no statistically significant differences between the Japan and Ex-Japan trials in any of the pharmacokinetic parameters analyzed.
No statistically significant differences were noted between the Japan and ex-Japan population for any of the derived parameters evaluated.
Each panel consisted of six subjects who were given eplerenone and two subjects who were given placebo.

[3] = system: patients with hypertension and left ventricular hypertrophy; assay: Eplerenone, enalapril and combination in left ventricular hypertrophy, 9 months (Examples A-15, D-4); type: in vivo, human
Text: Table […] illustrates forth the above-described dosing scheme. […] Additional laboratory assessments of blood for clinical safety will be done monthly. Routine urinalysis will be done every three months. […] A blood sample for genotyping will be collected at Week 0. At screening and at Month 9, a 12-lead ECG and physical examination will be done. […] In case of early termination, an MRI and blood sample for TSH will be done for those patients who have received double-blind treatment for at least three months. At Weeks 0, 12 and Months 6 and 9, pharmacoeconomic data will be collected on all patients. The primary measure of efficacy is the change from baseline in LVM, as assessed by MRI, in the eplerenone group versus the enalapril group. […] Secondary measures of efficacy will be the following: […] (3) aortic compliance and ventricular filling parameters; and (4) special studies (PIIINP, microalbuminuria, PAI, and tPA). Additionally, the long-term safety and tolerability of the three treatment groups will be compared. […] The study design is illustrated in FIG. D-10. […] Left ventricular mass (LVM) (assayed by MRI), BP, collagen turnover, and tolerability were assessed at the 9-month endpoint.

[4] = system: patients not controlled with ACE-I or ARB; assay: Co-administration of eplerenone with ACE-I or ARB in mild-moderate hypertension (Example D-9); type: in vivo, human
Experimental: Patients examined in the study were those who currently were treated with an ACE-I and/or ARB and who had DBP ≧95 mmHg and <110 mmHg and SBP <180 mmHg. Previous antihypertensive therapy was withdrawn except a fixed dose of single ACE-I or ARB.

[5] = system: patients with mild-to-moderate hypertension; assay: Long-term open-label safety and efficacy study of eplerenone (Example D-11); type: in vivo, human; design: mean change from baseline SBP: unit not given beside the values; details: for Change Mean seated DBP, Baseline to End of Treatment / Change Mean seated SBP, Baseline to End of Treatment: Responders, ITT
Experimental: This 6- to 16-month, open-label, single-group, titration-to-effect study assessed the safety, tolerability, and efficacy of EPL in patients with mild-to-moderate hypertension.
Patients (n=586) with DBP ≧90 mmHg and <110 mmHg, or SBP ≧140 mmHg and <180 mmHg, received EPL 50 mg QD. If BP was uncontrolled at Weeks 2 or 4 (DBP ≧90 mmHg or SBP ≧140 mmHg), EPL was up-titrated to 100 mg QD and, if necessary, 200 mg QD. If BP remained uncontrolled at any time from Week 6 to the end of Month 3, a second antihypertensive medication of the investigator's choice was added. Safety, tolerability, and BP were assessed at protocol-specified times.

[6] = system: patients with stage I-III hypertension; assay: Fixed-dose eplerenone vs placebo, clinic and ambulatory BP, 12 weeks (Example D-13); type: in vivo, human
Text: Patients were reassessed using clinic and ambulatory BP at the end of 12 weeks of therapy.

[7] = 9-month endpoint, forced titration
[8] = 9-month endpoint, EPL 200 mg, ENAL 40 mg, EPL 200 mg/ENAL 10 mg
[9] = addition of eplerenone, 8 weeks
[10] = EPL 200 mg plus add-on therapy (N=172)
[11] = subgroup 50, 100, 200 mg QD + Ahyp (add-on therapy)
[12] = final dose level EPL 50 mg (N=68)
[13] = final dose level EPL 100 mg (N=89)
[14] = final dose level EPL 200 mg (N=104)

COC(=O)[C@@H]1CC2=CC(=O)CC[C@]2(C)[C@@]23O[C@@H]2C[C@@]2(C)[C@@H](CC[C@@]24CCC(=O)O4)[C@H]13 [Eplerenone, Pregn-4-ene-7,21-dicarboxylic acid, 9,11-epoxy-17-hydroxy-3-oxo-, γ-lactone, methyl ester, (7α, 11α, 17β)-]
Mean Na/K ([1]; Table A-3A, aldosterone + antagonist 10 mg/100 g rat): 2.17
Mean Na/K ([1]; Table A-3A, aldosterone + antagonist 30 mg/100 g rat): 2.98
Mean Na/K ([1]; Table A-3A, aldosterone + antagonist 100 mg/100 g rat): 3.44
Mean Na/K ([1]; Table A-3B, aldosterone + antagonist 3 mg/100 g rat): 0.90
Mean Na/K ([1]; Table A-3B, aldosterone + antagonist 10 mg/100 g rat): 1.34
Mean Na/K ([1]; Table A-3B, aldosterone + antagonist 30 mg/100 g rat): 1.18
Mean Na/K ([1]; Table A-3B, aldosterone + antagonist 100 mg/100 g rat): 2.10
Mean Na/K ([1]; Table A-3B, aldosterone + antagonist 300 mg/100 g rat): 4.79
Mean Na/K ([1]; Table A-3B, aldosterone + antagonist 1000 mg/100 g rat): 5.70
efficacy of subcutaneous injection versus oral administration ([1]; antagonism of aldosterone-mediated renal effects): Subcutaneous injection provided better efficacy than oral administration
clinical lab abnormalities and adverse events ([2]; healthy Japanese male subjects, single doses 50-600 mg): no adverse events were reported
Vd/F ([2]; Ex-Japan): 80.6 L
Vd/F ([2]; Japan): 80.1 L
DBP Adjusted mean change [3, 7]: −10.8 mmHg
SBP Adjusted mean change [3, 7]: −21.0 mmHg
decrease from baseline in UACR [3, 8]: −28.7%
decrease from baseline in collagen turnover [3, 8]: −7.3%
patients experiencing coughing ([3]; 9-month study): 3.1%
LVM Adjusted mean change [g (SE)] ([3]; left ventricular mass by MRI, 9-month endpoint, forced titration (EPL 50-200 mg, ENAL 10-40 mg)): −14.5 (3.36) g
regressing LVH and reducing collagen turnover ([3]; monotherapy): as effective as enalapril monotherapy
laboratory abnormalities, K+, adverse events ([4]; addition of eplerenone to ACE-I or ARB): No significant increase in relevant laboratory abnormalities
SBP & DBP in patients currently treated with ARB [4, 9]: Significant reductions in SBP & DBP
SBP in patients currently treated with ACE-I [4, 9]: Significant reductions in SBP
heart rate ([4]; either group): No change in heart rate
patients responding to eplerenone monotherapy ([5]; 261/582): 44.8%
mean change from baseline DBP [5, 10]: −14.6
mean change from baseline SBP [5, 10]: −24.9
Change Mean seated DBP, Baseline to End of Treatment ([5]; subgroup 50 mg QD): −10.6 mmHg
Change Mean seated SBP, Baseline to End of Treatment ([5]; subgroup 50 mg QD): −15.9 mmHg
Change Mean seated DBP, Baseline to End of Treatment ([5]; subgroup 50, 100 mg QD): −12.2 mmHg
Change Mean seated SBP, Baseline to End of Treatment ([5]; subgroup 50, 100 mg QD): −18.1 mmHg
Change Mean seated DBP, Baseline to End of Treatment ([5]; subgroup 50, 100, 200 mg QD): −12.5 mmHg
Change Mean seated SBP, Baseline to End of Treatment ([5]; subgroup 50, 100, 200 mg QD): −19.1 mmHg
Change Mean seated DBP, Baseline to End of Treatment [5, 11]: −14.6 mmHg
Change Mean seated SBP, Baseline to End of Treatment [5, 11]: −24.9 mmHg
gynecomastia ([5]; doses of 50, 100, and 200 mg): 0.7%
mean change from baseline DBP [5, 12]: −10.6
mean change from baseline SBP [5, 12]: −15.9
mean change from baseline DBP [5, 13]: −12.2
mean change from baseline SBP [5, 13]: −18.1
mean change from baseline DBP [5, 14]: −12.5
mean change from baseline SBP [5, 14]: −19.1
patients with treatment-emergent AEs of probable relationship to study medication ([5]; in vivo): 8.4%
patients with treatment-emergent AEs of uncertain relationship to study medication ([5]; in vivo): 21.5%
responders at the end of treatment, number ([5]; of 582 patients): 433 patients
responders (seDBP<90 mmHg or ≧10 mmHg decrease from Baseline) at the end of treatment ([5]; of 582 patients, EPL 50-200 mg QD with or without add-on): 74.3%
patients with elevated K+ levels ([5]; primarily those receiving EPL 200 mg): 2.4%
safety and tolerability ([5]; up to 14 months, 50-200 mg daily alone or 200 mg/day with another antihypertensive agent): safe and well tolerated
Δ Ambulatory BP, diastolic ([6]; 25 mg QD): −4.4 mmHg
Δ Ambulatory BP, systolic ([6]; 25 mg QD): −6.4 mmHg
Δ Clinic BP, diastolic ([6]; 25 mg QD): −3.7 mmHg
Δ Clinic BP, systolic ([6]; 25 mg QD): −5.7 mmHg
Δ Ambulatory BP, diastolic ([6]; 50 mg QD): −4.1 mmHg
Δ Ambulatory BP, systolic ([6]; 50 mg QD): −6.8 mmHg
Δ Clinic BP, diastolic ([6]; 50 mg QD): −4.6 mmHg
Δ Clinic BP, systolic ([6]; 50 mg QD): −6.7 mmHg
Δ Ambulatory BP, diastolic ([6]; 100 mg QD): −5.5 mmHg
Δ Ambulatory BP, systolic ([6]; 100 mg QD): −9.1 mmHg
Δ Clinic BP, diastolic ([6]; 100 mg QD): −6.3 mmHg
Δ Clinic BP, systolic ([6]; 100 mg QD): −10.4 mmHg
Δ Ambulatory BP, diastolic ([6]; 200 mg QD): −5.7 mmHg
Δ Ambulatory BP, systolic ([6]; 200 mg QD): −10.3 mmHg
Δ Clinic BP, diastolic ([6]; 200 mg QD): −5.4 mmHg
Δ Clinic BP, systolic ([6]; 200 mg QD): −8.8 mmHg
gynecomastia, menstrual abnormalities, breast pain ([6]; 25-200 mg QD): no reports of gynecomastia, menstrual abnormalities, or breast pain
